Results published in patent US20010044151A1, “Ligands for modulating the expression of exogenous genes via an ecdysone receptor complex” (priority 1998, published 2001).
Like-named read-outs stand apart in the source and are kept apart here.

Target: T1, ecdysteroid receptor complex in Drosophila Kc cell cytosolic extract (Drosophila melanogaster, UniProt P34021)
T1 construct: The supernatant, containing the cytosolic protein extract; endogenous in cells; host or cells: Drosophila Kc167 cells, cytosolic extract
T1 sequence (P34021 1-878): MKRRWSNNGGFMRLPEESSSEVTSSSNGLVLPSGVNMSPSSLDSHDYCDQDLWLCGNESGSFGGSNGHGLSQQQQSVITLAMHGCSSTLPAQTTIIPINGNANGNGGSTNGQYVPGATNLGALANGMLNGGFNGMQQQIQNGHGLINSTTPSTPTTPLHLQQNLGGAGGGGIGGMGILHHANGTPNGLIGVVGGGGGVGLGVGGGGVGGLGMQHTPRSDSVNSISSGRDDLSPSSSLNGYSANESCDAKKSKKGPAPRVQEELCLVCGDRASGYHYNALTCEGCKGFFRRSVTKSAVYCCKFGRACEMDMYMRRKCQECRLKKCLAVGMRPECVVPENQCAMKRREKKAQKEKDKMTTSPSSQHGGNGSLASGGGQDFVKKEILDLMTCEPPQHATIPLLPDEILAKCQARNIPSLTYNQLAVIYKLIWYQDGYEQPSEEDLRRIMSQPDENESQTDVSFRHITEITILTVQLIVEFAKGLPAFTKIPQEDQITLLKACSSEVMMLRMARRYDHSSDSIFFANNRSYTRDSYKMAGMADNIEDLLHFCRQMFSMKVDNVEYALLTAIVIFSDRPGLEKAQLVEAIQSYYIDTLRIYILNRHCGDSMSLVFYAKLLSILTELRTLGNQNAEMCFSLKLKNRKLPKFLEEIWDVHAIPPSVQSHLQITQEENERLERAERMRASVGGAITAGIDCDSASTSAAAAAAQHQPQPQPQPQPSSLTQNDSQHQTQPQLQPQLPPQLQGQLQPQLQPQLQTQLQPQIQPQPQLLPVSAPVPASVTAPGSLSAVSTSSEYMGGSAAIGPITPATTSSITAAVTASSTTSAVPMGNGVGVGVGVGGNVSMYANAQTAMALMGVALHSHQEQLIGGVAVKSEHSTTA
T1 sequence (P20153 1-508 partner): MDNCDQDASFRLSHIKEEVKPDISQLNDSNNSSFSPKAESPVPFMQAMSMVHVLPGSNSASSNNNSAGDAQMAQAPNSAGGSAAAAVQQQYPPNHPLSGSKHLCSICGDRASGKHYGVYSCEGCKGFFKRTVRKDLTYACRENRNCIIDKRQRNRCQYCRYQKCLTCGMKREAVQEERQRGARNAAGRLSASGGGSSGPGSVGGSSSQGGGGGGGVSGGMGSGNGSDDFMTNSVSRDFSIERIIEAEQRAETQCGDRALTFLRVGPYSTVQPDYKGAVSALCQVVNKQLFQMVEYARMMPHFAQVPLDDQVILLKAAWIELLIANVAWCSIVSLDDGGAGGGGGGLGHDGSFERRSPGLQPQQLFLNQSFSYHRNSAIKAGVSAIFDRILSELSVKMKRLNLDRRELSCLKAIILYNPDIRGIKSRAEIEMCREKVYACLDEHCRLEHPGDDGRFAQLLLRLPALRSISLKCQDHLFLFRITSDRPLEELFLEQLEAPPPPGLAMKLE
Assay: Competitive 3H-ponasterone A binding assay, Kc cytosolic ecdysone receptor extract
Conditions: for Kc log(1/EC50) / EC50: Kc cells/extract; for Kd: read-out: Kd for Kc cells; for EC50: read-out: Kc log(1/EC50) (converted)
Procedure: The dipteran cell line Kc167, originally derived from Drosophila embryos (see Echalier, G. and Ohanessian, A. (1969) C. R. Acad. Sci., 268, 1771) was obtained from Dr. Peter Cherbas (Indiana University) and maintained as described (Cherbas, L., et. al., (1994), Methods in Cell Biology, 44, 161-179). A 400 ml culture of Kc Cells (3×10^7 cells per ml) was centrifuged at 700×g for 10 minutes at room temperature to pellet the cells. The supernatant was aspirated and the pellet was resuspended in 70 ml of cold TM buffer (10 mM Tris, 5 mM MgCl2, 1 mM DTT, pH 7.2). After a 10 minute incubation on ice, the cells were centrifuged at 2,300×g. The supernatant was discarded. The cell pellet was frozen at −20° C. for 1 hour. The frozen cell pellet was thawed slowly on ice and homogenized in a cold Potter-Elvehjem homogenizer using a teflon pestle on a Caframo homogenizer motor, at setting 500 with 10 up and down strokes at 4° C. This slurry was centrifuged at 100,000×g in a swinging bucket rotor for 60 minutes. The supernatant, containing the cytosolic protein extract was diluted with T buffer (10 mM Tris, 1 mM DTT, pH 7.2) to a protein concentration of 5 mg/ml. This extract was used immediately for ligand binding assays.
^3H ponasterone A, a potent phytoecdysteroid, (66,000 dpm; specific activity 170 Ci/mmole; NEN Life Science Products, Boston, Mass.) was mixed with 100 μl Kc cytosolic or Plodia nuclear ecdysone receptor extracts in […] glass test tubes in the absence or presence of 10 μM unlabelled 20-hydroxyecdysone (20E) to obtain an estimate of total or non-specific respectively, binding of tritiated ponasterone A. The tubes were vortexed and incubated overnight at 4° C. for Kc cytosolic extracts or 1.5 hours for Plodia nuclear extracts for binding reactions to reach equilibrium. At the end of equilibrium binding times, the bound tritiated ponasterone A was separated from the unbound by addition of ice-cold 600 μl or 300 μl dextran-coated charcoal solution (500 mg of Sigma HCL-washed activated charcoal, 50 mg Pharmacia Dextran T70, 50 ml T-buffer) to Kc or Plodia extracts, respectively. The tubes were vortexed briefly and centrifuged at 7,000×g to pellet the charcoal. The supernatant, 600 μl or 300 μl for Kc or Plodia extract reactions, respectively, containing tritiated ponasterone A bound to proteins, was aspirated into liquid scintillation vials containing 5 ml scintillation cocktail (ReadySafe®, Beckmann) each The mixture was vortexed and the amount of total or non-specifically bound radioactivity measured in a Beckmann LS500 liquid scinitllation counter with a 60% counting efficiency for tritium.
The concentrations of competitors that inhibited 50% of tritiated ponasterone A binding (IC50) was determined by incubating Kc or Plodia nuclear extracts or extracts of bacteria producing CfEcR(CDEF)-GST and CfUSP-GST fusions proteins with ^3H-ponasterone A (66,000 dpm per reaction) in the presence of a range of concentrations (0.1 nM to 10 μM) of test compounds. In the case of binding reactions using bacterial fusion proteins, 20 or one μl extract of bacteria producing CfEcR(CDEF)-GST or CfUSP-GST fusion proteins, respectively, were included per binding reaction. The assay conditions and determination of total and non-specific binding was as described above. The volume of competitor in solvent, like that for 20E or solvent alone, was kept at 1% of total reaction volume by using a 100 fold concentrated stock solution (i.e. a 100 fold dilution of stock solutions). The remainder of the assay was as described above. Each reaction was carried out in duplicate per concentration per test compound. Specific binding of ^3H-ponasterone A was determined by subtracting non-specific binding (that obtained in the presence of 10 μM 20E) from total (no competitor) or competed radioactivity bound. The data for each test compound was analyzed using IGOR Pro software (WaveMetrics, Lake Oswego, Oreg.) to calculate IC50 value. […]

Row | Compound | Kc log(1/EC50) | Kd (Table 2) | Kd (Table 3) | EC50
1 | CCc1c(OC)cccc1C(=O)NN(C(=O)c1cc(C)cc(C)c1)C(C)(C)C [Ligand 5] | 7.70 | 13.3 nM | 13 nM | –
2 | Cc1cc(C)cc(C(=O)N(NC(=O)c2ccc3c(c2C)OCCO3)C(C)(C)C)c1 [Ligand 2] | 7.16 | 60 nM | 47 nM | –
3 | CC(C)CC[C@@H](O)[C@](C)(O)[C@H]1CC[C@@]2(O)C3=CC(=O)[C@]4(O)C[C@@H](O)[C@@H](O)C[C@]4(C)[C@H]3[C@H](O)C[C@]12C [CE-3, muristerone A, reference compound] | 7.96 | 2.3 nM | 2 nM | –
4 | CCc1c(OC)cccc1C(=O)NN(C(=O)c1cc(F)cc(F)c1)C(C)(C)C [Ligand 4] | 7.41 | 47 nM | 26 nM | –
5 | COc1cccc(C(=O)NN(C(=O)c2cc(C)cc(C)c2)C(C)(C)C)c1C [Ligand 3] | 6.74 | 124 nM | 124 nM | –
6 | CCc1c(OC)cccc1C(=O)NN(C(=O)c1cccc(OC)c1)C(C)(C)C [Ligand 1] | 7.36 | 39.5 nM | 40 nM | –
7 | CCc1ccc(C(=O)NN(C(=O)c2cc(C)cc(C)c2)C(C)(C)C)cc1 [CE-1, N-(4-ethylbenzoyl)-N′-(3,5-dimethylbenzoyl)-N′-tert-butyl-hydrazine, reference compound] | – | 110 nM | 192 nM | 282 nM
8 | CCOc1cccc(C(=O)NN(C(=O)c2cc(C)cc(C)c2)C(C)(C)C)c1CC [Ligand 12] | 8.10 | 5.3 nM | 5 nM | –
9 | CC(C)(C)N(NC(=O)c1ccccc1)C(=O)c1ccccc1 [CE-2, 1,2-dibenzoyl-1-tert-butyl-hydrazine, reference compound] | – | 2000 nM | 2000 nM | 3020 nM
10 | CCc1c(OC)cccc1C(=O)NN(C(=O)c1cc(Cl)cc(Cl)c1)C(C)(C)C [Ligand 13] | 7.44 | 65 nM | 24 nM | –
11 | CC(C)CC[C@@H](O)[C@](C)(O)[C@H]1CC[C@@]2(O)C3=CC(=O)[C@@H]4C[C@@H](O)[C@@H](O)C[C@]4(C)[C@H]3CC[C@]12C [CE-4, ponasterone A, reference compound] | – | 0.7 nM | 0.7 nM | –
